Measured values taken from US20020128295A1, “Use of pyridoxamine for the treatment and inhibition of obesity-related complications” (priority 2000, published 2002).
Marks after values point to notes of the source that are not given here.

How the values were obtained:
[1] = system: Zucker obese (fa/fa) rats; assay: Fasting plasma insulin (ELISA); format: in vivo, rat
Description: All experiments were carried out in accordance with the regulations of the Institutional Animal Care and Use Committee of the University of South Carolina. Female Zucker obese (fa/fa) rats 6 weeks old, (n=14) and lean (LN) littermates (Fa/fa), also 6 weeks old (n=7) were purchased from Charles River Laboratories (Wilmington, Mass.). The fa/fa rats were divided randomly into two groups of 7 each, untreated fatty control (FC) and PM-treated (FPM) animals, the latter group receiving 2 g PM/L in the drinking water. […] All animals were housed individually with a light dark cycle of 12 hours each, and had free access to food and water. […] All assays for proteins and metabolites in plasma and urine were performed by microplate adaptations of current methods, using a Wallac Victor Model 1420 multilabel plate reader (Wallac, Inc., Gaithersburg, Md.). […] Plasma glucose was measured using the Trinder assay Kit (Sigma #315) and total glycated hemoglobin (GlcHb) by boronate affinity chromatography (Sigma kit #442-B). Total plasma triglycerides and cholesterol were analyzed by enzymatic, calorimetric, end-point assays using Sigma kits for triglycerides (#37, GPO Trinder) and total cholesterol (#352). Insulin was measured using a direct sandwich ELISA for rat insulin (ALPCO, Windham, N.H.). […]

[2] = system: streptozotocin (STZ)-induced diabetic rat; settings: earlier study, cited from earlier work
[3] = system: advanced lipoxidation end-products (ALEs); settings: lipid peroxidation reactions in vitro; cited from earlier work
[4] = system: Zucker obese (fa/fa) rats; assay: Systolic blood pressure by tail cuff plethysmography; format: in vivo, rat; settings: initial 125-130 mm Hg at week 5; FC rose to 165 mm Hg
Description: (§1) All experiments were carried out in accordance with the regulations of the Institutional Animal Care and Use Committee of the University of South Carolina. Female Zucker obese (fa/fa) rats 6 weeks old, (n=14) and lean (LN) littermates (Fa/fa), also 6 weeks old (n=7) were purchased from Charles River Laboratories (Wilmington, Mass.). The fa/fa rats were divided randomly into two groups of 7 each, untreated fatty control (FC) and PM-treated (FPM) animals, the latter group receiving 2 g PM/L in the drinking water. […] All animals were housed individually with a light dark cycle of 12 hours each, and had free access to food and water. Blood pressure measurements were initiated at week 5 in the experiment after acclimating the animals to the apparatus, and were carried out the week following blood and urine collection. Measurements were made by tail cuff plethysmography using a Kent Scientific XBP instrument.

[5] = system: Zucker obese (fa/fa) rats; assay: Vascular changes in aorta and coronary arteries at necropsy; format: in vivo, rat
Description: All experiments were carried out in accordance with the regulations of the Institutional Animal Care and Use Committee of the University of South Carolina. Female Zucker obese (fa/fa) rats 6 weeks old, (n=14) and lean (LN) littermates (Fa/fa), also 6 weeks old (n=7) were purchased from Charles River Laboratories (Wilmington, Mass.). The fa/fa rats were divided randomly into two groups of 7 each, untreated fatty control (FC) and PM-treated (FPM) animals, the latter group receiving 2 g PM/L in the drinking water. […] All animals were housed individually with a light dark cycle of 12 hours each, and had free access to food and water. Blood was drawn from anaesthetized (isoflurane) rats by heart puncture and transferred into heparinized vacutainer tubes on ice. Plasma was separated from whole blood within 30 min by centrifugation in a refrigerated benchtop centrifuge; aliquots of plasma were stored at −70° C. until time of analysis. Rats were then killed by over-anesthetization, and liver and kidneys were removed, and both organs rinsed in phosphate buffered saline, and weighed. One kidney was cut in half transversely, and one half was removed for fixation (buffered formalin) for light microscopy. The remaining kidney and liver samples were frozen at −70° C. […]

[6] = system: Zucker obese (fa/fa) rats; assay: Glycation (fructoselysine) of skin collagen by SIM-GC/MS; format: in vivo, rat; settings: insoluble skin collagen
Description: (§2) All experiments were carried out in accordance with the regulations of the Institutional Animal Care and Use Committee of the University of South Carolina. Female Zucker obese (fa/fa) rats 6 weeks old, (n=14) and lean (LN) littermates (Fa/fa), also 6 weeks old (n=7) were purchased from Charles River Laboratories (Wilmington, Mass.). The fa/fa rats were divided randomly into two groups of 7 each, untreated fatty control (FC) and PM-treated (FPM) animals, the latter group receiving 2 g PM/L in the drinking water. […] All animals were housed individually with a light dark cycle of 12 hours each, and had free access to food and water. The insoluble fraction of skin collagen was prepared by scraping the skin with a single-edged razor blade to remove hair and adventitious tissue, followed by a series of extractions with 0.5 M NaCl, 0.5 M acetic acid and chloroform/methanol (2:1 v/v), as described previously (Dyer et al., J. Clin. Invest. 91:2463-2469 (1993)). Fructoselysine (FL), a measure of glycation of collagen, and CML, CEL, MDA-lysine and HNE-lysine were assayed by isotope dilution, selected ion monitoring gas chromatography—mass spectrometry (SIM-GC/MS), and pentosidine by RP-HPLC, all as described previously (Requena et al., Biochem. J. 322:317-325 (1997)). Levels of AGEs/ALEs were expressed relative to the FL content of the collagen in order to correct for differences in mean age of the protein (see Table 1 and Discussion, below). Collagen fluorescence (Ex=370 nm, Em=440 nm) was measured after solubilization with pepsin (20 μg/mL in 0.5 M acetic, 24 hr at 37° C.), and was normalized to the hydroxyproline content of the collagen, measured as described by Stegemann and Stalder (Clin. Chim. Acta 18:267-273 (1967)).

[7] = system: Zucker obese (fa/fa) rats; assay: Renal function: urinary protein, albumin, plasma creatinine, urine volume; format: in vivo, rat
Description: All experiments were carried out in accordance with the regulations of the Institutional Animal Care and Use Committee of the University of South Carolina. Female Zucker obese (fa/fa) rats 6 weeks old, (n=14) and lean (LN) littermates (Fa/fa), also 6 weeks old (n=7) were purchased from Charles River Laboratories (Wilmington, Mass.). The fa/fa rats were divided randomly into two groups of 7 each, untreated fatty control (FC) and PM-treated (FPM) animals, the latter group receiving 2 g PM/L in the drinking water. […] All animals were housed individually with a light dark cycle of 12 hours each, and had free access to food and water. Progression of renal disease was assessed by measurements of plasma creatinine and urinary albumin and total urinary protein. Plasma creatinine concentration was measured by the Jaffe picric acid procedure, using Sigma kit #555-A. For urine collections, rats were housed in metabolic rat cages for 24 hr with free access to food and water. Several drops of toluene were added to the urine collection beaker to inhibit microbial growth. Urinary albumin was quantified by an ELISA assay. Rabbit antiserum to rat albumin and horseradish peroxidase (HRP)-conjugated goat anti-rabbit IgG were purchased from ICN Biomedical Research Products, Costa Mesa, Calif. Briefly, wells were coated with 50 ng of rat albumin (Sigma, St. Louis) in 0.1 M sodium carbonate buffer, pH 10.4, overnight at 4° C. […] After washing, horseradish peroxidase-conjugated goat anti-rabbit IgG (200 μL) was applied for 1 h at 25° C. with shaking, and the plate was developed with 200 μL of ABTS-reagent (2,2′-azino-bis(3-ethylbenzthiazoline-6-sulfonic acid) for 45 min at room temperature. Absorbance was measured at 405 nm. Total urinary protein was measured using the Sigma Microprotein-PR Kit. Based on preliminary experiments in which known amounts of PM were added to urine, PM increased the final absorbance readings in the protein assay, so that a correction (<10%) was applied for the PM content of the urine.

[8] = system: Sprague-Dawley and Zucker rats; settings: rat, in vivo
Description: as §1, with “water.” for “water. Blood pressure measurements were initiated at week 5 in the experiment after acclimating the animals to the apparatus, and were carried out the week following blood and urine collection. Measurements were made by tail cuff plethysmography using a Kent Scientific XBP instrument.”

[9] = system: Zucker obese (fa/fa) rats; assay: Dyslipidemia: plasma triglycerides and total cholesterol; format: in vivo, rat
Description: (§3) All experiments were carried out in accordance with the regulations of the Institutional Animal Care and Use Committee of the University of South Carolina. Female Zucker obese (fa/fa) rats 6 weeks old, (n=14) and lean (LN) littermates (Fa/fa), also 6 weeks old (n=7) were purchased from Charles River Laboratories (Wilmington, Mass.). The fa/fa rats were divided randomly into two groups of 7 each, untreated fatty control (FC) and PM-treated (FPM) animals, the latter group receiving 2 g PM/L in the drinking water. […] All animals were housed individually with a light dark cycle of 12 hours each, and had free access to food and water. Blood was obtained from the tail vein, using heparinized microhematocrit tubes, and plasma recovered by centrifugation at 4° C. All assays for proteins and metabolites in plasma and urine were performed by microplate adaptations of current methods, using a Wallac Victor Model 1420 multilabel plate reader (Wallac, Inc., Gaithersburg, Md.). […] Plasma glucose was measured using the Trinder assay Kit (Sigma #315) and total glycated hemoglobin (GlcHb) by boronate affinity chromatography (Sigma kit #442-B). Total plasma triglycerides and cholesterol were analyzed by enzymatic, calorimetric, end-point assays using Sigma kits for triglycerides (#37, GPO Trinder) and total cholesterol (#352). Insulin was measured using a direct sandwich ELISA for rat insulin (ALPCO, Windham, N.H.). Plasma PM concentration was measured by reverse phase high performance liquid chromatography (RP-HPLC) with fluorescence detection, using 293/393 nm excitation and emission wavelengths.

[10] = system: Zucker obese (fa/fa) rats; assay: Chemical modifications (AGE/ALEs) and fluorescence in skin collagen; format: in vivo, rat
Description: as §2

[11] = system: Zucker obese (fa/fa) rats; assay: Plasma glucose and total glycated hemoglobin (glycemic control); format: in vivo, rat; settings: for Plasma glucose: mean ± SD, 7 animals
Description: as §3

[12] = Week 0, 2 g PM/L in drinking water
[13] = Week 16, 2 g PM/L in drinking water
[14] = Week 32, 2 g PM/L in drinking water

## Cc1ncc(CO)c(CN)c1O [PM, Pyridoxamine]
[1]; 32 weeks
  Fasting plasma insulin: 7.3 ± 0.6 µg/L
[1]; fa/fa animals
  Effect on insulin resistance: did not significantly affect insulin resistance
[2]; STZ-induced diabetic rat
  Albuminuria and plasma creatinine: marked reduction in albuminuria and plasma creatinine
  Development of renal disease: significantly inhibited the development of renal disease
  Effect on glycemic control: no effect on glycemic control
[2]; STZ-rat
  Reduction in hyperlipidemia: > 50%
[3]
  Inhibition of formation of advanced lipoxidation end-products (ALEs): potent inhibitor
[4]
  Systolic blood pressure course: remained at initial values
[5]
  Aorta compared with LN animals: indistinguishable from those of LN animals in all but one animal
  Changes in the aortic or coronary vasculature: minimal changes
[6]; Week 0
  Glycation of Skin Collagen FL: 3.5 ± 0.2 mmol/mol lysine
[6]; Week 11
  Glycation of Skin Collagen FL: 3.0 ± 0.1 mmol/mol lysine
[6]; Week 32
  Glycation of Skin Collagen FL: 2.3 ± 0.3 mmol/mol lysine
[7]; at any point in the study
  Difference in urine volume between FC and FPM animals: no significant differences in urine volume
[7]; end of the study
  Urinary volume: 27.0 mL/day
[7]; fa/fa rat, confirmed by plasma creatinine
  Effect on development of proteinuria: impressive protection against development of proteinuria
[8]
  Tolerability of the dose: well tolerated
[9]; FC rats approximately 250 mg/dL
  Plasma cholesterol: ~150 mg/dL
[9]; after 10 weeks
  Plasma triglycerides relative to the level in LN animals: about three
  Plasma triglycerides relative to the values observed in FC animals: less than 50%
[9]; fa/fa rat
  Effect on dyslipidemia, both triglycerides and cholesterol: significantly reduced dyslipidemia
[9]; rat, in vivo
  Plasma cholesterol, higher than in LN animals: ~50%
[10]; 8 months
  HNE-lysine detectability in skin collagen: not detectable
[10]; 8 months, in 3 of 7 animals
  MDA-lysine trace amounts in skin collagen: < 2 μmol/mol FL
[10]; Week 32
  MDA-Lys in skin collagen: Trace
[10]; Week 32, necropsy samples, Ex=370 nm, Em=440 nm
  Fluorescence of skin collagen: 0.05 ± 0.02 Arbitrary Units/mol FL
[10]; Week 32, of 7 animals
  Number of samples in which MDA-lysine was measurable: (3/7)^d
[10]; fa/fa rats
  Effect on increase in CML and CEL in skin collagen: inhibited the increase in CML and CEL
[10]; necropsy samples, FC 2-fold higher than LN
  Effect on increase in Maillard-type collagen fluorescence: prevented this increase
[10]; through week 11
  Effect on increase in pentosidine in skin collagen: effective in limiting the increase in pentosidine
[10]; until 8 months
  MDA-lysine detectability in skin collagen: no MDA-lysine was detectable
[10]; week 32, p=0.07
  Significance of differences in pentosidine between FC and FPM rats: marginal
[11]; 32 week experiment
  Effect on glycemia: no effect on glycemia
[11]; [12]
  Glycated Hemoglobin: 6.8 ± 0.5%
  Plasma glucose: 6.8 ± 0.5 mM
[11]; [13]
  Glycated Hemoglobin: 6.5 ± 0.3%
  Plasma glucose: 6.9 ± 0.6 mM
[11]; [14]
  Glycated Hemoglobin: 6.8 ± 0.3%
  Plasma glucose: 6.8 ± 0.5 mM
